# Biological target: T1, PLK1 (Homo sapiens, UniProt P53350)
# T1 construct: Full-length, active GST-PLK1 is purified from Sf9 insect cells; made in house; host or cells: Sf9 insect cells
# Assay: Biochemical Characterization Assay: HTRF kinase assay, GST-PLK1 phosphorylation of GST-p53
# Details: GST-PLK1, GST-p53 substrate, ATP
# Procedure, shortened: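 HTRF read-out of p53 phosphorylation: after EDTA stop, anti-phospho-p53 antibody bound 30 min at 37 °C in HEPES pH 7 buffer, with Eu-anti-rabbit/APC-anti-GST detection. Kinase step used full-length Sf9-expressed GST-PLK1 (3 ug/mL) and E. coli GST-p53 substrate, 35 min at 37 °C.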
# T1 sequence (P53350 whole entry): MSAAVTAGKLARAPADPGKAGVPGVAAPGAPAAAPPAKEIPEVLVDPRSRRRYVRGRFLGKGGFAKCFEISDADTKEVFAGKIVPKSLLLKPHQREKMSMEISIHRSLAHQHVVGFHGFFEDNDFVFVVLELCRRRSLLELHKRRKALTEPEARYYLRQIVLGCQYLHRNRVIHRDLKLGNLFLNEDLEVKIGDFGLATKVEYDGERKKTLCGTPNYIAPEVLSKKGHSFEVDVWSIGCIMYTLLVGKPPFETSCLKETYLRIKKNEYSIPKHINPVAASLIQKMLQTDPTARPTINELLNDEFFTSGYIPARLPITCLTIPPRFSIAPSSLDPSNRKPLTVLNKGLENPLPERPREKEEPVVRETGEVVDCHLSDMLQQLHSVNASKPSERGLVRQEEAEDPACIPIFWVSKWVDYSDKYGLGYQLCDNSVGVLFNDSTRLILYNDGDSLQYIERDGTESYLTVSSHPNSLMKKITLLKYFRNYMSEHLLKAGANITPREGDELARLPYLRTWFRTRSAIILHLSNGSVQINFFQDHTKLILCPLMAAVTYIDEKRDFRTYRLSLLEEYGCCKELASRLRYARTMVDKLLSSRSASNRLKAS
row,Compound,IC50
1,"COc1cc(C(=O)NCC2CCN(C(=O)OC(C)(C)C)C2)ccc1Nc1ncc2c(n1)N(C1CCCC1)CC(F)(F)C(=O)N2C (stereo not drawn) [Example I-92, 3-{[4-(9-cyclopentyl-7,7-difluoro-5-methyl-6-oxo-6,7,8,9-tetrahydro-5H-pyrimido[4,5-b][1,4]diazepin-2-ylamino)-3-methoxy-benzoylamino]-methyl}-pyrrolidine-1-carboxylic acid tert-butyl ester]",51 to 500 nM
2,"COc1cc(C(=O)NCCCN2CCN(CCO)CC2)ccc1Nc1ncc2c(n1)N(C1CCCC1)CC(F)(F)C(=O)N2C [Example I-96, 4-(9-cyclopentyl-7,7-difluoro-5-methyl-6-oxo-6,7,8,9-tetrahydro-5H-pyrimido[4,5-b][1,4]diazepin-2-ylamino)-N-{3-[4-(2-hydroxy-ethyl)-piperazin-1-yl]-propyl}-3-methoxy-benzamide]",1 to 50 nM
3,"COc1cc(C(=O)N[C@H]2CC[C@@H](NC(=O)OC(C)(C)C)CC2)ccc1Nc1ncc2c(n1)N(C1CCCC1)CC(F)(F)C(=O)N2C [Example I-97, cis-{4-[4-(9-cyclopentyl-7,7-difluoro-5-methyl-6-oxo-6,7,8,9-tetrahydro-5H-pyrimido[4,5-b][1,4]diazepin-2-ylamino)-3-methoxy-benzoylamino]-cyclohexyl}-carbamic acid tert-butyl ester]",51 to 500 nM
4,"COc1cc(C(=O)N[C@H]2CC[C@@H](N)CC2)ccc1Nc1ncc2c(n1)N(C1CCCC1)CC(F)(F)C(=O)N2C [Example I-98, cis-N-(4-amino-cyclohexyl)-4-(9-cyclopentyl-7,7-difluoro-5-methyl-6-oxo-6,7,8,9-tetrahydro-5H-pyrimido[4,5-b][1,4]diazepin-2-ylamino)-3-methoxy-benzamide]",1 to 50 nM
5,"COc1cc(C(=O)NC2CN(C)C2)ccc1Nc1ncc2c(n1)N(C1CCCC1)CC(F)(F)C(=O)N2C [Example I-99, 4-(9-cyclopentyl-7,7-difluoro-5-methyl-6-oxo-6,7,8,9-tetrahydro-5H-pyrimido[4,5-b][1,4]diazepin-2-ylamino)-3-methoxy-N-(1-methyl-azetidin-3-yl)-benzamide]",1 to 50 nM
6,"COc1cc(C(=O)N[C@H]2CCN(Cc3ccccc3)C2)ccc1Nc1ncc2c(n1)N(C1CCCC1)CC(F)(F)C(=O)N2C [Example I-100, N—((S)-1-benzyl-pyrrolidin-3-yl)-4-(9-cyclopentyl-7,7-difluoro-5-methyl-6-oxo-6,7,8,9-tetrahydro-5H-pyrimido[4,5-b][1,4]diazepin-2-ylamino)-3-methoxy-benzamide]",1 to 50 nM
7,"COc1cc(C(=O)N[C@@H]2CCN(Cc3ccccc3)C2)ccc1Nc1ncc2c(n1)N(C1CCCC1)CC(F)(F)C(=O)N2C [Example I-101, N—((R)-1-benzyl-pyrrolidin-3-yl)-4-(9-cyclopentyl-7,7-difluoro-5-methyl-6-oxo-6,7,8,9-tetrahydro-5H-pyrimido[4,5-b][1,4]diazepin-2-ylamino)-3-methoxy-benzamide]",1 to 50 nM
8,"COc1cc(C(=O)NC2CCN(C(C)=O)CC2)ccc1Nc1ncc2c(n1)N(C1CCCC1)CC(F)(F)C(=O)N2C [Example I-102, N-(1-acetyl-piperidin-4-yl)-4-(9-cyclopentyl-7,7-difluoro-5-methyl-6-oxo-6,7,8,9-tetrahydro-5H-pyrimido[4,5-b][1,4]diazepin-2-ylamino)-3-methoxy-benzamide]",1 to 50 nM
9,"COc1cc(C(=O)N[C@@H]2CN(C(=O)OC(C)(C)C)C[C@H]2O)ccc1Nc1ncc2c(n1)N(C1CCCC1)CC(F)(F)C(=O)N2C [Example I-103, (3R,4R)-3-[4-(9-cyclopentyl-7,7-difluoro-5-methyl-6-oxo-6,7,8,9-tetrahydro-5H-pyrimido[4,5-b][1,4]diazepin-2-ylamino)-3-methoxy-benzoylamino]-4-hydroxy-pyrrolidine-1-carboxylic acid tert-butyl ester]",1 to 50 nM
10,"COc1cc(C(=O)N[C@@H]2CNC[C@H]2O)ccc1Nc1ncc2c(n1)N(C1CCCC1)CC(F)(F)C(=O)N2C [Example I-104, 4-(9-cyclopentyl-7,7-difluoro-5-methyl-6-oxo-6,7,8,9-tetrahydro-5H-pyrimido[4,5-b][1,4]diazepin-2-ylamino)-N-((3R,4R)-4-hydroxy-pyrrolidin-3-yl)-3-methoxy-benzamide]",1 to 50 nM
11,"COc1cc(C(=O)NCCCN2CCC(O)CC2)ccc1Nc1ncc2c(n1)N(C1CCCC1)CC(F)(F)C(=O)N2C [Example I-105, 4-(9-cyclopentyl-7,7-difluoro-5-methyl-6-oxo-6,7,8,9-tetrahydro-5H-pyrimido[4,5-b][1,4]diazepin-2-ylamino)-N-[3-(4-hydroxy-piperidin-1-yl)-propyl]-3-methoxy-benzamide]",1 to 50 nM
12,"COc1cc(C(=O)NC2CN3CCC2CC3)ccc1Nc1ncc2c(n1)N(C1CCCC1)CC(F)(F)C(=O)N2C [Example I-106, N—(R)-1-aza-bicyclo[2.2.2]oct-3-yl-4-(9-cyclopentyl-7,7-difluoro-5-methyl-6-oxo-6,7,8,9-tetrahydro-5H-pyrimido[4,5-b][1,4]diazepin-2-ylamino)-3-methoxy-benzamide]",1 to 50 nM
13,"COc1cc(C(=O)N[C@@H]2CN3CCC2CC3)ccc1Nc1ncc2c(n1)N(C1CCCC1)CC(F)(F)C(=O)N2C [Example I-107, N—(S)-1-aza-bicyclo[2.2.2]oct-3-yl-4-(9-cyclopentyl-7,7-difluoro-5-methyl-6-oxo-6,7,8,9-tetrahydro-5H-pyrimido[4,5-b][1,4]diazepin-2-ylamino)-3-methoxy-benzamide]",1 to 50 nM
14,"COc1cc(C(=O)NC2CCN(c3ccccn3)CC2)ccc1Nc1ncc2c(n1)N(C1CCCC1)CC(F)(F)C(=O)N2C [Example I-108, 4-(9-cyclopentyl-7,7-difluoro-5-methyl-6-oxo-6,7,8,9-tetrahydro-5H-pyrimido[4,5-b][1,4]diazepin-2-ylamino)-3-methoxy-N-(3,4,5,6-tetrahydro-2H-[1,2′]bipyridinyl-4-yl)-benzamide]",1 to 50 nM
15,"COc1cc(C(=O)NCc2ccccn2)ccc1Nc1ncc2c(n1)N(C1CCCC1)CC(F)(F)C(=O)N2C [Example I-109, 4-(9-cyclopentyl-7,7-difluoro-5-methyl-6-oxo-6,7,8,9-tetrahydro-5H-pyrimido[4,5-b][1,4]diazepin-2-ylamino)-3-methoxy-N-pyridin-2-ylmethyl-benzamide]",1 to 50 nM
16,"COc1cc(C(=O)NCCCN2CCCCC2C)ccc1Nc1ncc2c(n1)N(C1CCCC1)CC(F)(F)C(=O)N2C (stereo not drawn) [Example I-110, 4-(9-cyclopentyl-7,7-difluoro-5-methyl-6-oxo-6,7,8,9-tetrahydro-5H-pyrimido[4,5-b][1,4]diazepin-2-ylamino)-3-methoxy-N-[3-(2-methyl-piperidin-1-yl)-propyl]-benzamide]",1 to 50 nM
17,"COc1cc(C(=O)NCc2cccnc2)ccc1Nc1ncc2c(n1)N(C1CCCC1)CC(F)(F)C(=O)N2C [Example I-111, 4-(9-cyclopentyl-7,7-difluoro-5-methyl-6-oxo-6,7,8,9-tetrahydro-5H-pyrimido[4,5-b][1,4]diazepin-2-ylamino)-3-methoxy-N-pyridin-3-yl-methyl benzamide]",1 to 50 nM

# More lines, now with the values ahead:
row,IC50,Compound
1,1 to 50 nM,"COc1cc(C(=O)NC2CCN(C(=O)C(C)(C)N)CC2)ccc1Nc1ncc2c(n1)N(C1CCCC1)CC(F)(F)C(=O)N2C [Example I-88, N-[1-(2-amino-2-methyl-propionyl)-piperidin-4-yl]-4-(9-cyclopentyl-7,7-difluoro-5-methyl-6-oxo-6,7,8,9-tetrahydro-5H-pyrimido[4,5-b][1,4]diazepin-2-ylamino)-3-methoxy-benzamide]"
2,1 to 50 nM,"COc1cc(C(=O)N[C@@H]2CCNC(=O)C2)ccc1Nc1ncc2c(n1)N(C1CCCC1)CC(F)(F)C(=O)N2C [Example I-89, R-4-(9-cyclopentyl-7,7-difluoro-5-methyl-6-oxo-6,7,8,9-tetrahydro-5H-pyrimido[4,5-b][1,4]diazepin-2-ylamino)-3-methoxy-N-(2-oxo-piperidin-4-yl)-benzamide]"
3,1 to 50 nM,"COc1cc(C(=O)N[C@H]2CCNC(=O)C2)ccc1Nc1ncc2c(n1)N(C1CCCC1)CC(F)(F)C(=O)N2C [Example I-90, S-4-(9-cyclopentyl-7,7-difluoro-5-methyl-6-oxo-6,7,8,9-tetrahydro-5H-pyrimido[4,5-b][1,4]diazepin-2-ylamino)-3-methoxy-N-(2-oxo-piperidin-4-yl)-benzamide]"
4,1 to 50 nM,"COc1cc(C(=O)NCC2CN(C(=O)OC(C)(C)C)C2)ccc1Nc1ncc2c(n1)N(C1CCCC1)CC(F)(F)C(=O)N2C [Example I-91, 3-{[4-(9-cyclopentyl-7,7-difluoro-5-methyl-6-oxo-6,7,8,9-tetrahydro-5H-pyrimido[4,5-b][1,4]diazepin-2-ylamino)-3-methoxy-benzoylamino]-methyl}-azetidine-1-carboxylic acid tert-butyl ester]"
5,1 to 50 nM,"COc1cc(C(=O)NCC2CCNC2)ccc1Nc1ncc2c(n1)N(C1CCCC1)CC(F)(F)C(=O)N2C (stereo not drawn) [Example I-93, 4-(9-cyclopentyl-7,7-difluoro-5-methyl-6-oxo-6,7,8,9-tetrahydro-5H-pyrimido[4,5b][1,4]diazepin-2-ylamino)-3-methoxy-N-pyrrolidin-3-ylmethyl-benzamide]"
6,1 to 50 nM,"COc1cc(C(=O)NCCCN2CCN(C(=O)OC(C)(C)C)CC2)ccc1Nc1ncc2c(n1)N(C1CCCC1)CC(F)(F)C(=O)N2C [Example I-94, 4-{3-[4-(9-cyclopentyl-7,7-difluoro-5-methyl-6-oxo-6,7,8,9-tetrahydro-5H-pyrimido[4,5-b][1,4]diazepin-2-ylamino)-3-methoxy-benzoylamino]-propyl}-piperazine-1-carboxylic acid tert-butyl ester]"
7,1 to 50 nM,"COc1cc(C(=O)NCCCN2CCNCC2)ccc1Nc1ncc2c(n1)N(C1CCCC1)CC(F)(F)C(=O)N2C [Example I-95, 4-(9-cyclopentyl-7,7-difluoro-5-methyl-6-oxo-6,7,8,9-tetrahydro-5H-pyrimido[4,5-b][1,4]diazepin-2-ylamino)-3-methoxy-N-(3-piperazin-1-yl-propyl)-benzamide]"
